The values that follow come from PMC12409781 (RSC Advances, 2025).

Holding throughout (assay): Cell viability assay
Common to all, as to format: cell-based

The test system of one assay is MIA PaCa-2. To be noted: Homo sapiens, MIA PaCa-2, 72 h, read-out: IC50 MIA PaCa-2.
A further assay relates to KPC. To be noted: 72 h, read-out: IC50 KPC.
A further assay relates to Panc-1. Particulars: Homo sapiens, PANC-1, 72 h, read-out: IC50 Panc-1, 72 hours, CCK-8.

Broadly, the IC50 is the concentration that inhibits the measured activity by half. Take `Nc1ccn([C@@H]2O[C@H](CO)[C@@H](O)C2(F)F)c(=O)n1` [Gemcitabine]: the IC50 with MIA PaCa-2 is 7.83 ± 0.28 µM; in the assay on KPC it was 5.36 ± 0.25 µM; with Panc-1 it was 11.6 ± 0.56 µM.
